Data published in ChEMBL document CHEMBL4715866, “A Chemical Probe for Dark Kinase STK17B Derives Its Potency and High Selectivity through a Unique P-Loop Conformation” (J Med Chem, 2020).
pIC50: −log10 of the molar value. Values after ≈ are worked out from the molar mass of the structure shown.

Columns and labels:
[1] = target: T1, Serine/threonine-protein kinase 17B (Homo sapiens, UniProt O94768)
T1 sequence (O94768 whole entry): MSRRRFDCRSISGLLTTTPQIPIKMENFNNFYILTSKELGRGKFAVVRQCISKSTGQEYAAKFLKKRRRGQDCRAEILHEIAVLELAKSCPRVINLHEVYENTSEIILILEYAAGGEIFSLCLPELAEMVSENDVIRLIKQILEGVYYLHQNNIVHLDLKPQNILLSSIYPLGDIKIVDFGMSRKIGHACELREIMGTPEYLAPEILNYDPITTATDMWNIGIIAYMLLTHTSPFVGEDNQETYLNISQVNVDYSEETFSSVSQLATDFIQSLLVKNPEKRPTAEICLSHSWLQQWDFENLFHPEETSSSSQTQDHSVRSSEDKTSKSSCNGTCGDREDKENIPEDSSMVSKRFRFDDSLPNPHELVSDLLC

[2] = target: T1, Serine/threonine-protein kinase 17B; assay: Inhibition of N-terminal His-tagged STK17B kinase domain (25 to 329 residues) (unknown origin) expressed in Escherichia coli incubated for 90 mins by Kinase seeker split luciferase assay
[3] = Stability in mouse liver microsomes assessed as compound remaining at 0.1 mM in presence of NADPH regeneration system after 30 mins by LC-MS/MS analysis; format: ADME, Microsome; conditions: read-out: Stabilty
[4] = Kinetic solubility in pH 7.4 PBS; format: physicochemical; conditions: read-out: Kinetic_solubility

Row | Compound | pIC50 [1] | pIC50 [2] | remaining at 0.5 h, 100 µM [3] [%] | solubility kinetic [4] [µg/mL]
1 | O=C(O)COc1ncnc2cc(-c3ccc(Cl)cc3)sc12 | < 5.00 | – | – | –
2 | O=C(O)CSc1ncnc2cc(-c3ccc(Cl)cc3)sc12 | 6.17 | 7.41 | – | –
3 | N#Cc1ccc(-c2cc3ncnc(SCC(=O)O)c3s2)cc1 | 5.49 | 7.46 | – | –
4 | CC(=O)Nc1ccc(-c2cc3ncnc(SCC(=O)O)c3s2)cc1 | < 5.00 | 7.64 | – | –
5 | CC(=O)c1ccc(-c2cc3ncnc(SCC(=O)O)c3s2)cn1 | < 5.00 | 7.43 | – | –
6 | CC(C)Sc1ccc(-c2cc3ncnc(SCC(=O)O)c3s2)cc1 | < 5.00 | 7.31 | – | –
7 | O=C(O)CSc1ncnc2cc(-c3cccc(F)c3)sc12 | 6.01 | 7.31 | – | –
8 | CCOC(=O)CNc1ncnc2cc(-c3ccc(SC)cc3)sc12 | < 5.00 | – | – | –
9 | CC(=O)Nc1cccc(-c2cc3ncnc(SCC(=O)O)c3s2)c1 | < 5.00 | 7.46 | – | –
10 | O=C(O)CSc1ncnc2cc(-c3ccc(F)c(F)c3)sc12 | 6.09 | 7.13 | 95 | 65 (≈ 192 µM)
11 | COc1cccc(-c2cc3c(SCC(=O)O)ncnc3s2)c1 | < 5.00 | – | – | –
12 | CCc1ccc(-c2cc3ncnc(SCC(=O)O)c3s2)cc1 | 6.42 | 7.39 | – | –
13 | O=C(O)CSc1ncnc2cc(-c3ccc(N4CCOCC4)cc3)sc12 | 6.14 | 7.85 | 63 | 61 (≈ 157 µM)
14 | CSc1ccc(-c2cc3c(SCC(=O)O)ncnc3s2)cc1 | < 5.00 | – | – | –
15 | CSc1ccc(-c2cc3ncnc(SCC(=O)O)c3s2)cc1F | 6.28 | 7.57 | 18 | 52 (≈ 142 µM)
16 | O=C(O)CSc1ncnc2cc(-c3ccc(Cl)c(Cl)c3)sc12 | 6.51 | 7.04 | – | –
17 | COc1ccc(-c2cc3c(SCC(=O)O)ncnc3s2)cc1 | < 5.00 | – | – | –

Row | Compound | pIC50 [1] | pIC50 [2] | remaining at 0.5 h, 100 µM [3] [%] | solubility kinetic [4] [µg/mL]
18 | O=C(O)CSc1ncnc2sc(-c3ccc(Cl)c(Cl)c3)cc12 | < 5.00 | – | – | –
19 | CC(=O)c1ccc(-c2cc3ncnc(SCC(=O)O)c3s2)cc1 | 5.82 | 7.89 | – | –
20 | CCOC(=O)COc1ncnc2cc(-c3ccc(Cl)cc3)sc12 | < 5.00 | – | – | –
21 | COc1ccc(-c2cc3ncnc(SCC(=O)O)c3s2)cc1F | 6.15 | 7.74 | 88 | 49 (≈ 140 µM)
22 | CSc1ccc(-c2cc3ncnc(NCC(=O)O)c3s2)cc1 | < 5.00 | – | – | –
23 | O=C(O)CSc1ncnc2cc(-c3cccc(N4CCOCC4)c3)sc12 | 5.54 | 7.08 | 73 | 54 (≈ 139 µM)
24 | CSc1ccc(-c2cc3ncnc(SCC(N)=O)c3s2)cc1 | < 5.00 | – | – | –
25 | CCOC(=O)c1ccc(-c2cc3ncnc(SCC(=O)O)c3s2)cc1 | 6.06 | 7.40 | 0 | 59 (≈ 158 µM)
26 | O=C(O)CSc1ncnc2cc(-c3ccc(C(F)(F)F)cc3)sc12 | 6.47 | 7.48 | 88 | 57 (≈ 154 µM)
27 | O=C(O)CSc1ncnc2cc(-c3cccc(OC(F)(F)F)c3)sc12 | 6.30 | 6.55 | – | –
28 | O=C(O)CSc1ncnc2cc(-c3ccccc3F)sc12 | 5.92 | 7.22 | 45 | 51 (≈ 159 µM)
29 | CSc1cccc(-c2cc3ncnc(SCC(=O)O)c3s2)c1 | 6.30 | 7.31 | – | –
30 | O=C(O)CSc1ncnc2cc(-c3cccs3)sc12 | 6.19 | 7.20 | 47 | 56 (≈ 182 µM)
31 | COc1ccccc1-c1cc2c(SCC(=O)O)ncnc2s1 | < 5.00 | 6.06 | – | –
32 | O=C(O)CSc1ncnc2cc(-c3ccc(OCc4ccccc4)cc3)sc12 | < 5.00 | 6.96 | – | –
33 | C[S+]([O-])c1ccc(-c2cc3ncnc(SCC(=O)O)c3s2)cc1 (stereo unspecified) | < 5.00 | 8.15 | – | –
34 | CSc1cccc(-c2cc3c(SCC(=O)O)ncnc3s2)c1 | < 5.00 | – | – | –
